From patent publication US20130281313A1, “PROGNOSTIC AND/OR PREDICTIVE BIOMARKERS AND BIOLOGICAL APPLICATIONS THEREOF” (INSTITUT GUSTAVE ROUSSY, priority 2010, published 2013)

Columns and labels:
[1] = system: TP53 (phospho-Ser15, phospho-Ser46), caspase-3, caspase-9; assay: Immunoblotting of the intrinsic apoptosis pathway; format: cell-based, human; details: A549 cells, sub-apoptotic (25 μM) CDDP in the presence of PN
Protocol: For the preparation of total protein extracts A549 cells were washed with cold PBS and lysed in a buffer containing 1% NP40, 20 mM HEPES (pH 7.9), 10 mM KCl, 1 mM EDTA, 10% glycerol, 1 mM orthovanadate, 1 mM PMSF, 1 mM dithiothreitol, 10 μg/mL aprotinin, 10 μg/mL leupeptin, and 10 μg/mL pepstatin, according to established protocols {Zermati, 2007}. […]

A549 cells = assay: Intracellular levels of CDDP in cell lysates; format: cell-based, human; details: 24 h, 25 μM CDDP alone or with PN and/or GSH, normalized to protein content
Protocol: (E,F) Intracellular levels of CDDP (normalized to protein content) in lysates from untransfected A549 cells (D) or A549 cells transfected with a PDXK-targeting siRNA (E), treated for 24 h with 25 μM CDDP alone or in combination with PN and/or GSH. Mean±SEM (n=6). *=p<0.05 (Studen's t test), as compared to untransfected (D) or siUNR transfected (E) cells treated with CDDP only. n.s.=non significant (Student's t test), as compared to cells treated with the same concentration of GSH (D) or to siPDXK-transfected cells treated with CDDP only (E).

## Cc1ncc(CO)c(CO)c1O [PN, pyridoxine]
[1]
  activating phosphorylation of TP53 on serines 15 and 46: an increased activating phosphorylation of TP53 on serines 15 and 46
  activation of caspases-3 and -9: an increased activation of caspases-3 and -9
A549 cells
  intracellular accumulation of CDDP: significantly augmented by PN in a PDXK-dependent fashion
